Experimental data from patent US20090148382A1, “Technetium- and rhenium-bis(heteroaryl) complexes, and methods of use thereof” (Molecular Insight Pharmaceuticals, Inc., priority 2004, published 2009).

Columns and labels:
formyl peptide receptor = molecular target: T1, formyl peptide receptor (Homo sapiens, UniProt P21462); assay: Affinity for the formyl peptide receptor by flow cytometry; type: binding; details: fluorescein labeled fNLFNTK as the reference ligand
T1 sequence (P21462 1-350): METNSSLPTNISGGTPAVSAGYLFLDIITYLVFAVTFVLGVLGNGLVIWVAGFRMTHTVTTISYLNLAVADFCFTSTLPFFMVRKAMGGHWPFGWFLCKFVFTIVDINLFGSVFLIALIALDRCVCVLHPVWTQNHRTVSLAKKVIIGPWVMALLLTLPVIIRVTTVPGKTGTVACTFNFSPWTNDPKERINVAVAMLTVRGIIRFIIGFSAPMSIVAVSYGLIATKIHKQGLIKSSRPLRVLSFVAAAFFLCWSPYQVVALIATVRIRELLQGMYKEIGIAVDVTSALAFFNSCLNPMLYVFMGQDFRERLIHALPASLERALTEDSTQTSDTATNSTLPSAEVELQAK
Description: The affinity of 5 and 6 for the formyl peptide receptor was determined by flow cytometry using fluorescein labeled fNLFNTK as the reference ligand.

[1] = Biodistribution / blood clearance of 99mTc complex; type: in vivo
Text: We have also explored extensively the use as ligands for metal tricarbonyls, e.g., Re and Tc tricarbonyls, of protected and unprotected versions of [ε-{N,N-di(pyridyl-2-methyl)}α-(fmoc)lysine] (Fmoc-DpK). The choice of the tridentate DpK for the exploration of a single amino acid chelate was based on the excellent RCP and RCY, and the potential to prepare radiopharmaceutical kits. The pyridine-2-methylamine was easily derivatized into the amino acid.
This approach enables the creation of libraries containing the {M(CO)3}^1+ core. We have begun to define the biological fate of the ^99mTc-bis(heteroaryl) complexes, allowing us to compare a series of future tridentate analogs. The dipyridine labeling proceeded in high yield and was stable to excess histidine and cysteine challenges for more than 18 hours. […] Activity decreased in all tissues as a function of time, except in the GI tract, which increased with time.

[2] = Stability to transchelation (cysteine / histidine challenge); type: physicochemical; details: 99mTc-labeled HPLC purified product
Description: The stability of the complex to transchelation was investigated by incubating two separate samples of 4b with 1000 fold excess of cysteine and histidine in PBS buffer heated to 37° C.

fMLF[(SAACQ-Re(CO)3)^+]G [Compound 6]
Kd (formyl peptide receptor): 27 ± 13 nM

[^99mTc(CO)3(DpK)]
blood clearance % ID/g ([1]; 5 minutes): 0.6 % ID/g | blood clearance % ID/g ([1]; 30 minutes): 0.07 % ID/g

O=C1c2ccccc2C(=O)N1CCCCN(Cc1ccccn1)Cc1ccccn1 [[{N,N-di(pyridyl-2-methyl)}N-butyl-phthlalimide]]
degradation in challenge experiments ([2]; 10 mM Cysteine or Histidine in PBS pH 7.2 at 37° C. for 20 hrs): no degradation

O=C(NC(CCCCN(Cc1ccccn1)Cc1ccccn1)C(=O)O)OCC1c2ccccc2-c2ccccc21 (stereo not drawn) [Fmoc-DpK, [ε-{N,N-di(pyridyl-2-methyl)}α-(fmoc)lysine]]
degradation in challenge experiments ([2]; 100 mM Cysteine or Histidine in PBS pH 7.2 at 37° C. for 18 hrs): no degradation
